Like-named read-outs stand apart in the source and are kept apart here.
What was measured:
Single oral dose PK = format: in vivo; conditions: Bama, minipig, plasma
Method: The PK of ribitol was studied in 3 male and 3 female Bama minipigs following escalating PO dose levels using the same animals with a 48 hour washout period at 0.3 g/kg (Day 1) (FIG. 11A), 1.0 g/kg (Day 3) (FIG. 11B) and 0.3 g/kg TID (Day 16) (FIG. 11C). On Days 1 and 3, blood samples were collected at 0, 0.5, 1, 2, 4, 8, 12, and 24 hours post dose from all animals. On Day 16, blood samples were collected from all animals at 0, 0.5, 1, 2, 4, 6 (pre-second dose), 6.5, 7, 8, 10, 12 (pre-third dose), 12.5, 13, 14, 16, and 24 hours post dose.

[1] = Phase 1 SAD/MAD study in healthy subjects; format: in vivo, human; conditions: for Cmax / Tmax / AUC(0-t): human, in vivo, oral, steady state, 6 days; for AUC(0-t): read-out: AUC(0-24)
Excerpt: The study described below is a randomized, blinded, placebo-controlled, parallel group study of the administration of single ascending doses (SAD) and multiple ascending doses (MAD) of ribitol to healthy subjects. The SAD part of this study includes 1 food effect (FE) cohort. The SAD and MAD phases of the study are nested.
Up to a maximum of 6 cohorts will be enrolled. The starting dose will be 0.5 g. Tentative dose levels will be 1.5 g, 3 g, 6 g, and 12 g, however, actual dose increments (including possible decrements) for Cohorts 2 and above will be determined by the safety review committee (SRC) and based on a minimum of 24 h of post dose PK data and at least 72 h post dose safety data from the previous dose level. A sentinel dosing plan will be employed at each dose level where the first 2 healthy participants (1 ribitol, 1 placebo) of each cohort will be dosed as sentinels at least 24 h prior to dosing the remaining cohort's participants. Once the informed consent form (ICF) is signed and eligibility criteria are determined, subjects will be admitted to the clinical research unit (CRU) 1 day prior to dosing (Day −1). Continuous cardiac monitoring using telemetry will be performed starting at least 12 h prior to dosing through at least 24 h after dosing.
Subjects will be admitted to the CRU 1 day prior to dosing (Day −1). On Day 1, subjects will start a 6-day course of orally administered daily study drug together with water after an overnight fast of at least 10 h prior to through at least 4 h after dosing. If dosing occurs more than once per day based on the data from the SAD cohort(s), instructions for dosing and any relaxation of the fasting requirements will be provided in a separate document. Water ad libitum is permitted except 1 h prior to through 1 h after dosing. Subjects will remain in the CRU until Day 8. Vital signs, ECGs, evaluation of AEs and blood draws for PK and safety laboratory tests will be obtained serially (see Schedule of Assessments, below). Subjects will return for an EOS visit on Day 10 (+5 day window allowed).
In the Phase 1 study, conducted essentially as described above, in Example 3. Subject in the single dose arm received 0.5, 1.5, 3, 6, 9, 12, or 15 grams of ribitol (data not shown). […] Subjects in the multiple dose arm received 1.5 g once daily, 3 g once daily, 3 g twice daily (q 12 h), 6 g twice daily (q 12 h), and 9 g twice daily (q 12 h). Subjects in the 3 g BID arm achieved steady-state AUC(0-24) values about the target threshold set by animal studies (182 μg*h/mL).
Clinical studies were performed as described in Example 3, with the exception that two additional doses of ribitol (9 g and 15 g) were administered in the SAD arm, i.e., the SAD doses were 0.5 g, 1.5 g, 3 g, 6 g, 9 g, 12 g, and 15 g ribitol.

In vitro Ames assay = format: cell-based
matriglycan expression = experiment: Matriglycan expression in wild type mice; format: in vivo, mouse; conditions: one month, 5% ribitol in drinking water; vs vehicle
Method: Wild type mice were dosed with ribitol to assess matriglycan expression in normal mice. The mice were treated for one month with 5% ribitol in drinking water ad libitum. Muscle samples were evaluated for matriglycan expression at the end of dosing via Western Blot analysis (FIG. 9).

[2] = Single intravenous dose PK; format: in vivo, CD-1 mouse; conditions: for CLs: CD-1 mice; for clearance: read-out: Systemic clearance (CLs)
Method: The PK of ribitol was studied in male and female CD-1 mice following three IV doses at 10, 30, and 100 mg/kg (n=3/dose/sex). Blood samples were collected serially up to 24 hours post dose.

[3] = 3 g, 3 g q 12 h (total 6 g/day)
[4] = 6 g q 12 h, 6 g q 12 h (total 12 g/day)
[5] = 9 g, 9 g q 12 h (total 18 g/day)
[6] = single doses 0.5, 1.5, 3, 6, 9, 12, 15 g

**Q.** Which AUC(0-inf) (Single oral dose PK; single PO 0.3 g/kg, female) does the source give for `OC[C@@H](O)[C@@H](O)[C@@H](O)CO` [ribitol, (2R,3s,4S)-Pentane-1,2,3,4,5-pentol] here?
**A.** 245000 ng·h/mL

**Q.** What about the Cmax (Single oral dose PK; single PO 0.3 g/kg, female) of the same compound?
**A.** 128 µg/mL

**Q.** What about the half-life (Single oral dose PK; single PO 0.3 g/kg, female) of the same compound?
**A.** 73.8 min

**Q.** And the bioavailability (Single oral dose PK; single PO 0.3 g/kg, female, read-out: % F)?
**A.** 65.3%

**Q.** And the Tmax (Single oral dose PK; single PO 0.3 g/kg, female, read-out: Tmax)?
**A.** 40.2 min

**Q.** What about the AUC(0-inf) (Single oral dose PK; single PO 0.3 g/kg, male) of the same compound?
**A.** 210000 ng·h/mL

**Q.** What about the Cmax (Single oral dose PK; single PO 0.3 g/kg, male) of the same compound?
**A.** 112 µg/mL

**Q.** And the half-life (Single oral dose PK; single PO 0.3 g/kg, male)?
**A.** 96 min

**Q.** And the bioavailability (Single oral dose PK; single PO 0.3 g/kg, male, read-out: % F)?
**A.** 55.9%

**Q.** What about the Tmax (Single oral dose PK; single PO 0.3 g/kg, male, read-out: Tmax) of the same compound?
**A.** 30 min

**Q.** And the AUC(0-inf) (Single oral dose PK; single PO 1.0 g/kg, female)?
**A.** 878000 ng·h/mL

**Q.** And the Cmax (Single oral dose PK; single PO 1.0 g/kg, female)?
**A.** 368 µg/mL

**Q.** And the half-life (Single oral dose PK; single PO 1.0 g/kg, female)?
**A.** 85.8 min

**Q.** And the bioavailability (Single oral dose PK; single PO 1.0 g/kg, female, read-out: % F)?
**A.** 70.2%

**Q.** And the Tmax (Single oral dose PK; single PO 1.0 g/kg, female, read-out: Tmax)?
**A.** 40.2 min

**Q.** What about the AUC(0-inf) (Single oral dose PK; single PO 1.0 g/kg, male) of the same compound?
**A.** 869000 ng·h/mL

**Q.** What about the Cmax (Single oral dose PK; single PO 1.0 g/kg, male) of the same compound?
**A.** 404 µg/mL

**Q.** What about the half-life (Single oral dose PK; single PO 1.0 g/kg, male) of the same compound?
**A.** 88.2 min

**Q.** And the bioavailability (Single oral dose PK; single PO 1.0 g/kg, male, read-out: % F)?
**A.** 69.4%

**Q.** What about the Tmax (Single oral dose PK; single PO 1.0 g/kg, male, read-out: Tmax) of the same compound?
**A.** 30 min

**Q.** What about the Tmax (Single oral dose PK; both sexes, po, read-out: Tmax after oral administration) of the same compound?
**A.** < 120 min

**Q.** And the bioavailability (Single oral dose PK; both sexes, po, range over doses and sexes, read-out: oral bioavailability)?
**A.** 55.9 to 70.2%

**Q.** And the “dose linearity with exposure” value ([1]; SAD 0.5-15 g)?
**A.** confirmed dose linearity with exposure

**Q.** And the Cmax ([1]; 1.5 g, 1.5 g once daily)?
**A.** 25 µg/mL

**Q.** What about the Tmax ([1]; 1.5 g, 1.5 g once daily) of the same compound?
**A.** 30.2 min

**Q.** And the AUC(0-t) ([1]; 1.5 g, 1.5 g once daily)?
**A.** 59800 ng·h/mL

**Q.** And the Cmax ([1]; 3 g, 3 g once daily)?
**A.** 35.6 µg/mL

**Q.** What about the Tmax ([1]; 3 g, 3 g once daily) of the same compound?
**A.** 30.2 min

**Q.** What about the AUC(0-t) ([1]; 3 g, 3 g once daily) of the same compound?
**A.** 95000 ng·h/mL

**Q.** What about the Cmax [1, 3] of the same compound?
**A.** 38 µg/mL

**Q.** And the Tmax [1, 3]?
**A.** 30.1 min

**Q.** What about the AUC(0-t) [1, 3] of the same compound?
**A.** 219000 ng·h/mL

**Q.** And the Cmax [1, 4]?
**A.** 107 µg/mL

**Q.** What about the Tmax [1, 4] of the same compound?
**A.** 45 min

**Q.** And the AUC(0-t) [1, 4]?
**A.** 500000 ng·h/mL

**Q.** And the Cmax [1, 5]?
**A.** 143 µg/mL

**Q.** What about the Tmax [1, 5] of the same compound?
**A.** 30.1 min

**Q.** And the AUC(0-t) [1, 5]?
**A.** 673000 ng·h/mL

**Q.** What about the dose limiting toxicity [1, 6] of the same compound?
**A.** no dose limiting toxicity was observed

**Q.** And the tolerability [1, 6]?
**A.** well tolerated

**Q.** And the genotoxicity (In vitro Ames assay)?
**A.** devoid of genotoxicity potential

**Q.** And the “matriglycan expression (Western Blot)” value (matriglycan expression)?
**A.** No increase in matriglycan expression

**Q.** And the AUC(0-inf) ([2]; CD-1, mouse, plasma, IV 10 mg/kg, female)?
**A.** 13300 ng·h/mL

**Q.** And the Vd ([2]; CD-1, mouse, plasma, IV 10 mg/kg, female, read-out: Vss)?
**A.** 4.27 L/kg

**Q.** And the AUC(0-inf) ([2]; CD-1, mouse, plasma, IV 10 mg/kg, male)?
**A.** 7320 ng·h/mL

**Q.** What about the Vd ([2]; CD-1, mouse, plasma, IV 10 mg/kg, male, read-out: Vss) of the same compound?
**A.** 1.49 L/kg

**Q.** And the AUC(0-inf) ([2]; CD-1, mouse, plasma, IV 30 mg/kg, female)?
**A.** 20100 ng·h/mL

**Q.** What about the Vd ([2]; CD-1, mouse, plasma, IV 30 mg/kg, female, read-out: Vss) of the same compound?
**A.** 3 L/kg

**Q.** What about the AUC(0-inf) ([2]; CD-1, mouse, plasma, IV 30 mg/kg, male) of the same compound?
**A.** 22300 ng·h/mL

**Q.** And the Vd ([2]; CD-1, mouse, plasma, IV 30 mg/kg, male, read-out: Vss)?
**A.** 6.74 L/kg

**Q.** What about the AUC(0-inf) ([2]; CD-1, mouse, plasma, IV 100 mg/kg, female) of the same compound?
**A.** 43100 ng·h/mL

**Q.** And the Vd ([2]; CD-1, mouse, plasma, IV 100 mg/kg, female, read-out: Vss)?
**A.** 2.67 L/kg

**Q.** And the AUC(0-inf) ([2]; CD-1, mouse, plasma, IV 100 mg/kg, male)?
**A.** 49700 ng·h/mL

**Q.** And the Vd ([2]; CD-1, mouse, plasma, IV 100 mg/kg, male, read-out: Vss)?
**A.** 2.01 L/kg

**Q.** And the CLs ([2]; IV 10 mg/kg, female)?
**A.** 12.6 mL/min/kg

**Q.** And the CLs ([2]; IV 10 mg/kg, male)?
**A.** 23.4 mL/min/kg

**Q.** What about the clearance ([2]; both sexes, CD-1, plasma, mouse, IV 100 mg/kg, range) of the same compound?
**A.** 33.6 to 38.9 mL/min/kg

**Q.** What about the clearance ([2]; both sexes, CD-1, plasma, mouse, IV 10 and 30 mg/kg, range) of the same compound?
**A.** 12.6 to 25 mL/min/kg

**Q.** And the Vd ([2]; both sexes, CD-1, plasma, mouse, IV, range, read-out: Volume of distribution at steady state (Vss))?
**A.** 1.49 to 6.74 L/kg
